The supplement of paper PMC10307832

Legend:
Test in all cases: relative viability (nuclei count vs DMSO), 5 days (fraction); higher = more cells survive
201T = system: 201T
Summary of the method: (§1)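 Lung cancer cell lines in 1536-well plates were dosed by pin tool the day after seeding, either with one drug alone or with a fixed anchor-drug dose plus five library-drug doses (not always all listed) in √10 steps. After 5 days, cells were fixed and their nuclei stained in one step (final 0.05% Triton X-100, 1% formaldehyde, 1 ug/ml Hoechst), then counted on 4× images. Relative viability is the nuclei count in treated wells divided by that in vehicle wells. Values are medians of duplicate plates.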

BEN = system: BEN
Summary of the method: as §1

CAL-12T = system: CAL-12T
Summary of the method: as §1

COR-L 105 = system: COR-L 105
Summary of the method: as §1

EKVX = system: EKVX
Summary of the method: as §1

HARA = system: HARA
Summary of the method: as §1

HCC-366 = system: HCC-366
Summary of the method: as §1

LK-2 = system: LK-2
Summary of the method: as §1

LOU-NH91 = system: LOU-NH91
Summary of the method: as §1

NCI-H1437 = system: NCI-H1437
Summary of the method: as §1

NCI-H1650 = system: NCI-H1650
Summary of the method: as §1

NCI-H1666 = system: NCI-H1666
Summary of the method: as §1

NCI-H2009 = system: NCI-H2009
Summary of the method: as §1

NCI-H2170 = system: NCI-H2170
Summary of the method: as §1

NCI-H3122 = system: NCI-H3122
Summary of the method: as §1

NCI-H441 = system: NCI-H441
Summary of the method: as §1

NCI-H460 = system: NCI-H460
Summary of the method: as §1

NCI-H727 = system: NCI-H727
Summary of the method: as §1

PC-14 = system: PC-14
Summary of the method: as §1

## CC(=O)O[C@@]12CO[C@@H]1C[C@H](O)[C@@]1(C)C(=O)[C@H](O)C3=C(C)[C@@H](OC(=O)[C@H](O)[C@@H](NC(=O)OC(C)(C)C)c4ccccc4)C[C@@](O)([C@@H](OC(=O)c4ccccc4)[C@H]21)C3(C)C [Docetaxel] + CC1(C)CCC(c2ccc(Cl)cc2)=C(CN2CCN(c3ccc(C(=O)NS(=O)(=O)c4ccc(N[C@H](CCN5CCOCC5)CSc5ccccc5)c(S(=O)(=O)C(F)(F)F)c4)cc3)CC2)C1 [Navitoclax] (partner 0.5 µM)
201T; first compound 0.0002 µM
  relative viability: 1.18
201T; first compound 0.000632 µM
  relative viability: 1.21
201T; first compound 0.002 µM
  relative viability: 1.06
201T; first compound 0.006325 µM
  relative viability: 0.507
201T; first compound 0.02 µM
  relative viability: 0.347
BEN; first compound 0.0002 µM
  relative viability: 0.0647
BEN; first compound 0.000632 µM
  relative viability: 0.25
BEN; first compound 0.002 µM
  relative viability: 0.0618
BEN; first compound 0.006325 µM
  relative viability: 0.0423
BEN; first compound 0.02 µM
  relative viability: 0.0454
CAL-12T; first compound 0.0002 µM
  relative viability: 1.02
CAL-12T; first compound 0.000632 µM
  relative viability: 0.694
CAL-12T; first compound 0.002 µM
  relative viability: 0.178
CAL-12T; first compound 0.02 µM
  relative viability: 0.101
COR-L 105; first compound 0.0002 µM
  relative viability: 0.94
COR-L 105; first compound 0.000632 µM
  relative viability: 0.715
COR-L 105; first compound 0.002 µM
  relative viability: 0.343
COR-L 105; first compound 0.006325 µM
  relative viability: 0.367
COR-L 105; first compound 0.02 µM
  relative viability: 0.26
EKVX; first compound 0.0002 µM
  relative viability: 0.918
EKVX; first compound 0.000632 µM
  relative viability: 0.847
EKVX; first compound 0.002 µM
  relative viability: 0.37
EKVX; first compound 0.006325 µM
  relative viability: 0.196
EKVX; first compound 0.02 µM
  relative viability: 0.123
HARA; first compound 0.0002 µM
  relative viability: 1.08
HARA; first compound 0.000632 µM
  relative viability: 0.912
HARA; first compound 0.002 µM
  relative viability: 0.156
HARA; first compound 0.006325 µM
  relative viability: 0.107
HARA; first compound 0.02 µM
  relative viability: 0.0621
HCC-366; first compound 0.0002 µM
  relative viability: 1.03
HCC-366; first compound 0.000632 µM
  relative viability: 0.969
HCC-366; first compound 0.002 µM
  relative viability: 0.0411
HCC-366; first compound 0.006325 µM
  relative viability: 0.0211
HCC-366; first compound 0.02 µM
  relative viability: 0.0135
LK-2; first compound 0.0002 µM
  relative viability: 0.805
LK-2; first compound 0.000632 µM
  relative viability: 0.556
LK-2; first compound 0.002 µM
  relative viability: 0.172
LK-2; first compound 0.006325 µM
  relative viability: 0.133
LK-2; first compound 0.02 µM
  relative viability: 0.145
LOU-NH91; first compound 0.0002 µM
  relative viability: 0.784
LOU-NH91; first compound 0.000632 µM
  relative viability: 0.512
LOU-NH91; first compound 0.002 µM
  relative viability: 0.332
LOU-NH91; first compound 0.006325 µM
  relative viability: 0.279
LOU-NH91; first compound 0.02 µM
  relative viability: 0.222
NCI-H1437; first compound 0.0002 µM
  relative viability: 1.02
NCI-H1437; first compound 0.000632 µM
  relative viability: 0.644
NCI-H1437; first compound 0.002 µM
  relative viability: 0.182
NCI-H1437; first compound 0.02 µM
  relative viability: 0.104
NCI-H1650; first compound 0.0002 µM
  relative viability: 1.13
NCI-H1650; first compound 0.000632 µM
  relative viability: 1.02
NCI-H1650; first compound 0.002 µM
  relative viability: 0.182
NCI-H1650; first compound 0.006325 µM
  relative viability: 0.19
NCI-H1650; first compound 0.02 µM
  relative viability: 0.104
NCI-H1666; first compound 0.0002 µM
  relative viability: 0.646
NCI-H1666; first compound 0.000632 µM
  relative viability: 0.565
NCI-H1666; first compound 0.002 µM
  relative viability: 0.354
NCI-H1666; first compound 0.006325 µM
  relative viability: 0.302
NCI-H1666; first compound 0.02 µM
  relative viability: 0.186
NCI-H2009; first compound 0.0002 µM
  relative viability: 1.15
NCI-H2009; first compound 0.000632 µM
  relative viability: 1.19
NCI-H2009; first compound 0.002 µM
  relative viability: 0.892
NCI-H2009; first compound 0.006325 µM
  relative viability: 0.575
NCI-H2009; first compound 0.02 µM
  relative viability: 0.117
NCI-H2170; first compound 0.0002 µM
  relative viability: 0.569
NCI-H2170; first compound 0.000632 µM
  relative viability: 0.49
NCI-H2170; first compound 0.002 µM
  relative viability: 0.237
NCI-H2170; first compound 0.006325 µM
  relative viability: 0.213
NCI-H2170; first compound 0.02 µM
  relative viability: 0.15
NCI-H3122; first compound 0.0002 µM
  relative viability: 0.996
NCI-H3122; first compound 0.000632 µM
  relative viability: 1
NCI-H3122; first compound 0.002 µM
  relative viability: 0.895
NCI-H3122; first compound 0.006325 µM
  relative viability: 0.376
NCI-H3122; first compound 0.02 µM
  relative viability: 0.168
NCI-H441; first compound 0.0002 µM
  relative viability: 0.486
NCI-H441; first compound 0.000632 µM
  relative viability: 0.275
NCI-H441; first compound 0.002 µM
  relative viability: 0.204
NCI-H441; first compound 0.006325 µM
  relative viability: 0.23
NCI-H441; first compound 0.02 µM
  relative viability: 0.13
NCI-H460; first compound 0.0002 µM
  relative viability: 0.997
NCI-H460; first compound 0.000632 µM
  relative viability: 0.219
NCI-H460; first compound 0.002 µM
  relative viability: 0.0187
NCI-H460; first compound 0.006325 µM
  relative viability: 0.0123
NCI-H460; first compound 0.02 µM
  relative viability: 0.0104
NCI-H727; first compound 0.0002 µM
  relative viability: 0.488
NCI-H727; first compound 0.000632 µM
  relative viability: 0.442
NCI-H727; first compound 0.002 µM
  relative viability: 0.308
NCI-H727; first compound 0.02 µM
  relative viability: 0.149
PC-14; first compound 0.0002 µM
  relative viability: 0.978
PC-14; first compound 0.000632 µM
  relative viability: 0.961
PC-14; first compound 0.002 µM
  relative viability: 0.201
PC-14; first compound 0.006325 µM
  relative viability: 0.0826
PC-14; first compound 0.02 µM
  relative viability: 0.0464
